Broadly, the IC50 is the concentration that gives 50% inhibition.

Where two headings read alike, the source gives them in different places.

The record followed here is US6596863B2, “Medical composition containing nitroetheneamine Derivative or salt there of as active constituent” (Ishihara Sangyo Kaisha, Ltd., priority 1998, dated 2003).

For one experiment, the target named is T1, human MMP-7 (Homo sapiens, UniProt P09237).
T1 construct: purchased Kabushiki Kaisha Yagai Chuo Kenkyusho YU-31001
T1 sequence (P09237 95-267): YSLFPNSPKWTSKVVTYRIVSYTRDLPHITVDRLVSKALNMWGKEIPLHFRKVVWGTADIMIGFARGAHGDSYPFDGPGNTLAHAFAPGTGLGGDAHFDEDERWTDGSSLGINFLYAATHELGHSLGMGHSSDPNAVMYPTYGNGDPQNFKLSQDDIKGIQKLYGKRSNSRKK
As to the kind of experiment: Enzyme inhibition activity against MMP-7 (matrilysin), fluorescent peptide substrate NFF-2. As to conditions: human MMP-7, substrate NFF-2, 37° C. for 2.5 hours. The format is biochemical. The method, then:
The inhibition activity against human MMP-7 was measured by the same method as the method for MMP-3, by using a MMP-7 solution (0.025 unit/ml; No. YU-31001, manufactured by Kabushiki Kaisha Yagai Chuo Kenkyusho, purity: at least 99.9%) and a fluorescent peptide substrate MOCAc—Arg-Pro-Lys-Pro-Tyr—Ala-Nva-Trp-Met-Lys(Dnp) -NH2 [NFF-2, No. 3167-v, manufactured by Peptide Institute, Inc.]. The enzymatic reaction was carried out at 37° C. for 2.5 hours in a dark place, and the relative fluorescence intensity was measured at a fluorescence wavelength of 400 nm with an excitation wavelength of 327 nm.

Experiment [1] deals with T2, human MMP-9 (gelatinase B) (Homo sapiens, UniProt P14780).
T2 construct: endogenous in cells; host or cells: HT1080 human fibrosarcoma cells (ATCC CCL-121), PMA-stimulated; enzyme purified from the culture supernatant
T2 sequence (P14780 107-707 limits assumed): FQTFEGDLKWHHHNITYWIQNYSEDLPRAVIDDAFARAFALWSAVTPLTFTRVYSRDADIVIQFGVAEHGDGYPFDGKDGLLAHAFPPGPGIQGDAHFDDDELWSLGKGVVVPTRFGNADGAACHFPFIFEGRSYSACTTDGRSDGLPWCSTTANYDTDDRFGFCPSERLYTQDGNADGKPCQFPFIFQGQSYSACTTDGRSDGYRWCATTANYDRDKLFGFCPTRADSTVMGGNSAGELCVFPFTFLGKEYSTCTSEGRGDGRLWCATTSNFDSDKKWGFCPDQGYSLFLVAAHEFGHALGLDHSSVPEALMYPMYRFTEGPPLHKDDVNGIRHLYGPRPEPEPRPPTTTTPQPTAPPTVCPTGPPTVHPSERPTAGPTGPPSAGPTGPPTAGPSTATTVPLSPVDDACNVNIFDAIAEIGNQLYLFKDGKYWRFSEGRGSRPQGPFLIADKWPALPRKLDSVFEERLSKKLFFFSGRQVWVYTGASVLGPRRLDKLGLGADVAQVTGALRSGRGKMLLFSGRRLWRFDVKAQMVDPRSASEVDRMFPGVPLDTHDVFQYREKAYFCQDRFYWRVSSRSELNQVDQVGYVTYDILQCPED
Nature of the experiment: Inhibition activity against human MMP-9 (gelatinase B), fluorescent peptide substrate. It counts as biochemical. As to conditions: compounds of the formula (I). A digest of the protocol:
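MMP-9 purified from PMA-stimulated (10 ng/ml) HT1080 supernatant, or commercial enzyme (0.0125-0.025 unit/ml or 0.2 μg/ml final), incubated with compound and 10 μM final Mca-Pro-Leu-Gly-Leu-Dpa-Ala-Arg-NH2 fluorescent substrate at 37 °C for 3 h in the dark. Precursor enzyme activated with APMA.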

The mark [2] stands for this setting: 1st measurement, read-out: MMP-9 inhibition activities IC50, 1st.
The mark [3] stands for this setting: 2nd measurement, read-out: MMP-9 inhibition activities IC50, 2nd.
The mark [4] stands for this setting: average of 1st and 2nd (or single measurement), read-out: MMP-9 inhibition activities IC50, Average.

On to `CCOCCOc1cc(C(F)(F)F)cc(NNC(=C[N+](=O)[O-])NC)n1` [Compound No. 107], for which the IC50 at human MMP-7 came out at 18.7 µM; in experiment [1] (setting [2]), 8 µM; in experiment [1] (setting [3]) it was 7.4 µM; in experiment [1] (setting [4]), 7.7 µM.
On to `CS(=O)(=O)NC(=C[N+](=O)[O-])NNc1cc(C(F)(F)F)cc(Cl)n1` [Compound No. 157, N-(1-(6-chloro-4-trifluoromethyl-2-pyridyl)hydrazino-2-nitroethenyl)methanesulfonamide], for which the IC50 against human MMP-7 is 16.5 µM; in experiment [1] (setting [2]), 7.4 µM; in experiment [1] (setting [3]), 5.5 µM; in experiment [1] (setting [4]), 6.5 µM.
On to `CCOCCOc1cc(C(F)(F)F)cc(NNC(=C[N+](=O)[O-])NS(C)(=O)=O)n1` [Compound No. 164, N-(1-(6-(2-ethoxyethoxy)-4-trifluoromethyl-2-pyridyl)hydrazino-2-nitroethenyl)methanesulfonamide], for which the half-inhibitory concentration (IC50) on human MMP-7 is 12 µM; in experiment [1] (setting [2]), 5.4 µM; in experiment [1] (setting [3]), 5.9 µM; in experiment [1] (setting [4]), 5.7 µM.
